Where a SMILES comes first, the peptide text is derived from it. Bridges are numbered along the chain shown (N, C = ends). [ ]: non-standard residue; d: D form. NMeY = CN[C@@H](Cc1ccc(O)cc1)C(=O)O; R8 = C=CCCCCCC[C@@](C)(N)C(=O)O; Cit = NC(=O)NCCC[C@H](N)C(=O)O; S5 = C=CCCC[C@](C)(N)C(=O)O; hSer = N[C@@H](CCO)C(=O)O; Nle = CCCC[C@H](N)C(=O)O; Aib = CC(C)(N)C(=O)O
molecular target: T1, human GHRH receptor (hGHRHR) (Homo sapiens, UniProt Q02643); assay: GHRHR agonism measured by cAMP (HTRF) in human 293 cells expressing hGHRHR; assay type: cell-based; conditions: 30 min at RT;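 further: receptor expressed transiently or stably, cells stimulated in serum-free medium, EC50 from a non-linear dose-response fit, maximal response defined by reference GHRH stimulation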
T1 construct: expressed in transfected cells; host or cells: Human 293 cells
T1 sequence (Q02643 23-423): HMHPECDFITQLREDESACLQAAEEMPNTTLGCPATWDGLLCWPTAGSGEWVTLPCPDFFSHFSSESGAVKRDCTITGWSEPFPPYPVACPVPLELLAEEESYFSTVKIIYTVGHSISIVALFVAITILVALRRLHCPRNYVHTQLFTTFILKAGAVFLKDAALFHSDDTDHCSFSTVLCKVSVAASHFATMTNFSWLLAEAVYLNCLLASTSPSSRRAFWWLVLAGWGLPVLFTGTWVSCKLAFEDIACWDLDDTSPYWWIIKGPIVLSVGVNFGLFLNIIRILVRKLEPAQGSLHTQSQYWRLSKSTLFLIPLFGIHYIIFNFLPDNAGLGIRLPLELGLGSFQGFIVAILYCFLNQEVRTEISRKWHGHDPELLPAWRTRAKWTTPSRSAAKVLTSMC

EC50 [nM]	Structure (SMILES)
1 to 10	CCCC[C@H](NC(=O)[C@@H](NC(=O)[C@H](CC(=O)O)NC(=O)[C@H](CCC(N)=O)NC(=O)[C@H](CC(C)C)NC(=O)[C@H](C)NC(=O)[C@H](CCCCN)NC(=O)[C@H](CCCNC(=N)N)NC(=O)[C@H](C)NC(=O)[C@H](CO)NC(=O)[C@H](CC(C)C)NC(=O)[C@H](CCC(N)=O)NC(=O)[C@H](C)NC(=O)[C@H](CC(C)C)NC(=O)[C@]1(C)CCCC=CCCC[C@](C)(NC(=O)[C@H](C)NC(=O)[C@@H](NC(=O)[C@H](Cc2ccccc2)NC(=O)[C@@H](NC(=O)[C@H](C)NC(=O)[C@H](CC(=O)O)NC(=O)[C@H](C)NC(=O)[C@H](Cc2ccc(O)cc2)NC)[C@@H](C)CC)[C@@H](C)O)C(=O)N[C@@H](Cc2ccc(O)cc2)C(=O)N[C@@H](CCCNC(=N)N)C(=O)N[C@@H](CCCCN)C(=O)N1)[C@@H](C)CC)C(=O)N[C@@H](CO)C(=O)N[C@@H](CCCNC(=N)N)C(N)=O [SP-10] (H-[NMeY]ADAIFTA[S5]YRK[S5]LAQLSARKALQDI[Nle]SR-NH2; staple 9-13)
1 to 10	CCCC[C@H](NC(=O)[C@@H](NC(=O)[C@H](CC(=O)O)NC(=O)[C@H](CCC(N)=O)NC(=O)[C@H](CC(C)C)NC(=O)[C@H](C)NC(=O)[C@H](CCCCN)NC(=O)[C@H](CCCNC(=N)N)NC(=O)[C@H](C)NC(=O)[C@H](CO)NC(=O)[C@H](CC(C)C)NC(=O)[C@H](CCC(N)=O)NC(=O)[C@H](C)NC(=O)[C@H](CC(C)C)NC(=O)[C@@H](NC(=O)[C@H](CCCCN)NC(=O)[C@H](CCCNC(=N)N)NC(=O)[C@H](Cc1ccc(O)cc1)NC(=O)[C@H](CO)NC(=O)[C@H](C)NC(=O)[C@@H](NC(=O)[C@H](Cc1ccccc1)NC(=O)[C@@H](NC(=O)[C@H](C)NC(=O)[C@H](CC(=O)O)NC(=O)[C@H](C)NC(=O)[C@@H](N)Cc1ccc(O)cc1)[C@@H](C)CC)[C@@H](C)O)C(C)C)[C@@H](C)CC)C(=O)N[C@@H](CO)C(=O)N[C@@H](CCCNC(=N)N)C(N)=O [SP-36] (H-YADAIFTASYRKVLAQLSARKALQDI[Nle]SR-NH2)
10 to 25	CC[C@H](C)[C@H](NC(=O)[C@H](C)NC(=O)[C@H](CC(=O)O)NC(=O)[C@H](C)NC(=O)[C@H](Cc1ccc(O)cc1)NC)C(=O)N[C@@H](Cc1ccccc1)C(=O)N[C@H](C(=O)N[C@@H](C)C(=O)N[C@@H](CO)C(=O)N[C@@H](Cc1ccc(O)cc1)C(=O)N[C@@H](CCCNC(=N)N)C(=O)N[C@]1(C)CCCCCCC=CCCC[C@@](C)(C(=O)N[C@@H](CCCNC(=N)N)C(=O)N[C@@H](CCCCN)C(=O)N[C@@H](C)C(=O)N[C@@H](CC(C)C)C(=O)N[C@@H](CCC(N)=O)C(=O)N[C@@H](CC(=O)O)C(=O)N[C@H](C(=O)N[C@@H](CCOC)C(=O)N[C@@H](CO)C(=O)N[C@@H](CCCNC(=N)N)C(N)=O)[C@@H](C)CC)NC(=O)[C@H](CO)NC(=O)[C@H](CC(C)C)NC(=O)[C@H](CCC(N)=O)NC(=O)[C@H](C)NC(=O)[C@H](CC(C)C)NC(=O)[C@H](C(C)C)NC1=O)[C@@H](C)O [SP-68] (H-[NMeY]ADAIFTASYR[R8]VLAQLS[S5]RKALQDI[hSer](Me)SR-NH2; staple 12-19)
≤ 1	CCCC[C@H](NC(=O)[C@@H](NC(=O)[C@H](CC(=O)O)NC(=O)[C@H](CCC(N)=O)NC(=O)[C@H](CC(C)C)NC(=O)[C@H](C)NC(=O)[C@H](CCCCN)NC(=O)[C@H](CCCNC(=N)N)NC(=O)[C@H](C)NC(=O)[C@H](CO)NC(=O)[C@H](CC(C)C)NC(=O)[C@H](CCC(N)=O)NC(=O)[C@H](C)NC(=O)[C@H](CC(C)C)NC(=O)[C@@H](NC(=O)[C@H](CCCCN)NC(=O)[C@H](CCCNC(=N)N)NC(=O)[C@H](Cc1ccc(O)cc1)NC(=O)[C@H](CO)NC(=O)[C@H](C)NC(=O)[C@@H](NC(=O)[C@H](Cc1ccccc1)NC(=O)[C@@H](NC(=O)[C@H](C)NC(=O)[C@H](CC(=O)O)NC(=O)[C@H](C)NC(=O)[C@H](Cc1ccc(O)cc1)NC)[C@@H](C)CC)[C@@H](C)O)C(C)C)[C@@H](C)CC)C(=O)N[C@@H](CO)C(=O)N[C@@H](CCCNC(N)=O)C(N)=O [SP-49] (H-[NMeY]ADAIFTASYRKVLAQLSARKALQDI[Nle]S[Cit]-NH2)
25 to 50	CCCC[C@H](NC(=O)[C@H](C)NC(=O)[C@H](CC(=O)O)NC(=O)[C@H](CCC(N)=O)NC(=O)[C@H](CC(C)C)NC(=O)[C@H](C)NC(=O)[C@H](CCCCN)NC(=O)[C@H](CCCNC(=N)N)NC(=O)[C@]1(C)CCCC=CCCCCCC[C@@](C)(NC(=O)[C@H](CCCNC(=N)N)NC(=O)[C@H](Cc2ccc(O)cc2)NC(=O)[C@H](CO)NC(=O)[C@H](C)NC(=O)[C@@H](NC(=O)[C@H](Cc2ccccc2)NC(=O)[C@@H](NC(=O)[C@H](C)NC(=O)[C@H](CC(=O)O)NC(=O)[C@H](C)NC(=O)[C@H](Cc2ccc(O)cc2)NC)[C@@H](C)CC)[C@@H](C)O)C(=O)N[C@@H](C(C)C)C(=O)N[C@@H](CC(C)C)C(=O)N[C@@H](C)C(=O)N[C@@H](CCC(N)=O)C(=O)N[C@@H](CC(C)C)C(=O)N[C@@H](CO)C(=O)N1)C(=O)N[C@@H](CO)C(=O)N[C@@H](CCCNC(=N)N)C(N)=O [SP-62] (H-[NMeY]ADAIFTASYR[R8]VLAQLS[S5]RKALQDA[Nle]SR-NH2; staple 12-19)
≤ 1	CCCC[C@H](NC(=O)[C@@H](NC(=O)[C@H](CC(=O)O)NC(=O)[C@H](CCC(N)=O)NC(=O)[C@H](CC(C)C)NC(=O)[C@H](C)NC(=O)[C@H](CCCCN)NC(=O)[C@H](CCCNC(=N)N)NC(=O)[C@H](C)NC(=O)[C@H](CO)NC(=O)[C@H](CC(C)C)NC(=O)[C@H](CCC(N)=O)NC(=O)[C@H](C)NC(=O)[C@H](CC(C)C)NC(=O)[C@@H](NC(=O)[C@H](CCCCN)NC(=O)[C@H](CCCNC(=N)N)NC(=O)[C@H](Cc1ccc(O)cc1)NC(=O)[C@H](CO)NC(=O)C(C)(C)NC(=O)[C@@H](NC(=O)[C@H](Cc1ccccc1)NC(=O)[C@@H](NC(=O)[C@H](C)NC(=O)[C@H](CC(=O)O)NC(=O)[C@H](C)NC(=O)[C@H](Cc1ccc(O)cc1)NC)[C@@H](C)CC)[C@@H](C)O)C(C)C)[C@@H](C)CC)C(=O)N[C@@H](CO)C(=O)N[C@@H](CCCNC(=N)N)C(N)=O [SP-41] (H-[NMeY]ADAIFT[Aib]SYRKVLAQLSARKALQDI[Nle]SR-NH2)
25 to 50	CCCC[C@H](NC(=O)[C@@H](NC(=O)[C@H](CC(=O)O)NC(=O)[C@H](CCC(N)=O)NC(=O)[C@H](CC(C)C)NC(=O)[C@H](C)NC(=O)[C@H](CCCCN)NC(=O)[C@H](CCCNC(=N)N)NC(=O)[C@]1(C)CCCC=CCCCCCC[C@@](C)(NC(=O)[C@H](CCCNC(=N)N)NC(=O)[C@H](Cc2ccc(O)cc2)NC(=O)[C@H](CO)NC(=O)[C@H](C)NC(=O)[C@@H](NC(=O)[C@H](Cc2ccccc2)NC(=O)[C@@H](NC(=O)[C@H](C)NC(=O)[C@H](CC(=O)O)NC(=O)[C@H](C)NC(=O)[C@H](Cc2ccc(O)cc2)NC)[C@@H](C)CC)[C@@H](C)O)C(=O)N[C@@H](C(C)C)C(=O)N[C@@H](CC(C)C)C(=O)N[C@@H](C)C(=O)N[C@@H](CCC(N)=O)C(=O)N[C@@H](CC(C)C)C(=O)N[C@@H](CO)C(=O)N1)[C@@H](C)CC)C(=O)N[C@@H](CO)C(=O)N[C@@H](CCCNC(=N)N)C(=O)N[C@@H](CCC(=O)O)C(=O)N[C@@H](CCC(=O)O)C(=O)N[C@@H](CCC(=O)O)C(N)=O [SP-59] (H-[NMeY]ADAIFTASYR[R8]VLAQLS[S5]RKALQDI[Nle]SREEE-NH2; staple 12-19)
1 to 10	CCCC[C@H](NC(=O)[C@@H](NC(=O)[C@]1(C)CCCC=CCCCCCC[C@@](C)(NC(=O)[C@H](CC(C)C)NC(=O)[C@H](CCC(N)=O)NC(=O)[C@H](C)NC(=O)[C@H](CC(C)C)NC(=O)[C@@H](NC(=O)[C@H](CCCCN)NC(=O)[C@H](CCCNC(=N)N)NC(=O)[C@H](Cc2ccc(O)cc2)NC(=O)[C@H](CO)NC(=O)[C@H](C)NC(=O)[C@@H](NC(=O)[C@H](Cc2ccccc2)NC(=O)[C@@H](NC(=O)[C@H](C)NC(=O)[C@H](CC(=O)O)NC(=O)[C@H](C)NC(=O)[C@H](Cc2ccc(O)cc2)NC)[C@@H](C)CC)[C@@H](C)O)C(C)C)C(=O)N[C@@H](C)C(=O)N[C@@H](CCCNC(=N)N)C(=O)N[C@@H](CCCCN)C(=O)N[C@@H](C)C(=O)N[C@@H](CC(C)C)C(=O)N[C@@H](CCC(N)=O)C(=O)N1)[C@@H](C)CC)C(=O)N[C@@H](CO)C(=O)N[C@@H](CCCNC(=N)N)C(N)=O [SP-30] (H-[NMeY]ADAIFTASYRKVLAQL[R8]ARKALQ[S5]I[Nle]SR-NH2; staple 18-25)

Structure (SMILES)	EC50 [nM]
CCCC[C@H](NC(=O)[C@@H](NC(=O)[C@H](CC(=O)O)NC(=O)[C@H](CCC(N)=O)NC(=O)[C@H](CC(C)C)NC(=O)[C@H](C)NC(=O)[C@H](CCCCN)NC(=O)[C@H](CCCNC(=N)N)NC(=O)[C@H](C)NC(=O)[C@H](CO)NC(=O)[C@H](CC(C)C)NC(=O)[C@H](CCC(N)=O)NC(=O)[C@H](C)NC(=O)[C@H](CC(C)C)NC(=O)[C@@H](NC(=O)[C@H](CCCCN)NC(=O)[C@H](CCCNC(N)=O)NC(=O)[C@H](Cc1ccc(O)cc1)NC(=O)[C@H](CO)NC(=O)[C@H](C)NC(=O)[C@@H](NC(=O)[C@H](Cc1ccccc1)NC(=O)[C@@H](NC(=O)[C@H](C)NC(=O)[C@H](CC(=O)O)NC(=O)[C@H](C)NC(=O)[C@H](Cc1ccc(O)cc1)NC)[C@@H](C)CC)[C@@H](C)O)C(C)C)[C@@H](C)CC)C(=O)N[C@@H](CO)C(=O)N[C@@H](CCCNC(=N)N)C(N)=O [SP-47] (H-[NMeY]ADAIFTASY[Cit]KVLAQLSARKALQDI[Nle]SR-NH2)	≤ 1
